The text below walks through data of US20260274814A1, “THIENYL COMPOUNDS FOR THE TREATMENT OF A CENTRAL NERVOUS SYSTEM DISEASE OR DISORDER” (Coreterra Therapeutics, Inc., priority 2023, published 2026).

This assay concerns mice. The assay can be described thus: Neuropharmacological Assay (SmartCube): automated behavioral signature of compound-treated mice compared with a database of reference drug classes. The assay is classed as in vivo. The conditions noted are these: for MED (minimal effective dose): dose having 45% or more total activity in SmartCube; for minimal effective dose: Mus musculus, ip, read-out: MED. The procedure, abridged:
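Probabilities reflect how closely the digitally recorded behavioural signature at 3.0 mg/kg i.p. matched each reference class (antipsychotic, anxiolytic, antidepressant etc.). Dosing occurred 15 min before testing. Minimal effective dose was the dose giving 45% or more total activity.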

Setting [1] is: i.p., if only one dose was tested, that dose is shown.
Where [2] appears, read: probability that activity matches this class of agents, 3.0 mg/kg i.p., 15 min before test.
The mark [3] stands for this setting: minimal effective dose: dose having 45% or more total activity in SmartCube, i.p., if only one dose tested, that dose is shown.
The mark [4] stands for this setting: SmartCube class probability, 3.0 mg/kg i.p., 15 min before test.
Where [5] appears, read: SmartCube probability class, 3.0 mg/kg dose, i.p. 15 min before the behavioral test.
Where [6] appears, read: probability that activity matches this class of agents, 3.0 mg/kg i.p., 15 min before test, hydrochloride, 3 mg/kg.

Structures can show the parent of a compound that is named as a salt. Where two headings read alike, the source gives them in different places.

On to `CNC1(C)CCc2cscc2C1` (single isomer, unassigned; enantiomer 2) [Compound 102, N, 5-dimethyl-6,7-dihydro-4H-2-benzothiophen-5-amine hydrochloride enantiomer 2], for which the “MED (minimal effective dose)” value under setting [1] worked out at 1 mpk. Also, under setting [2], the AD entry is given as “++++ (≥74%)”, the AG entry is recorded as “ND (^ <4%)”, the AN result is “ND (^ <4%)” and the AP entry is reported as “ND (^ <4%)”. Under setting [2], the AX result is “ND (^ <4%)”, the CE entry is given as “ND (^ <4%)”, the HL entry is “ND (^ <4%)” and the MS entry is listed as “ND (^ <4%)”. Further, under setting [2], the SH result is “ND (^ <4%)” and the UK result was “ND (^ <4%)”. Moreover, where the note is “probability that activity matches this class of agents, 3.0 mg/kg i.p., 15 min before test, 3 mg/kg”, the PS result is “+ (≥4%)”.
For the compound `Cc1sc(F)c2c1CC(N)CC2` (stereo not drawn) [Compound 203, 1-fluoro-3-methyl-4,5,6,7-tetrahydro-2-benzothiophen-5-amine hydrochloride], the minimal effective dose under setting [3] amounted to 3 mg/kg. In addition, under setting [4], the AD result is listed as “ND (^ <4%)”, the AG result was “ND (^ <4%)”, the AN entry is on record as “ND (^ <4%)” and the AP result is “ND (^ <4%)”. For the same compound, under setting [4], the AX result is “ND (^ <4%)”, the CE entry was “ND (^ <4%)”, the HL entry was “ND (^ <4%)” and the MS result is listed as “ND (^ <4%)”. Also, under setting [4], the PS entry is recorded as “ND (^ <4%)”, the SH result is “ND (^ <4%)” and the UK entry is reported as “+++ (≥49%)”.
Take `CNC1CCc2scc(-c3ccccc3)c2C1` (single isomer, unassigned) [Compound 233, N-methyl-3-phenyl-4,5,6,7-tetrahydrobenzothiophen-5-amine hydrochloride]: under setting [4], the AD result was “ND (^ <4%)”, the AG entry is listed as “ND (^ <4%)”, the AN entry is “ND (^ <4%)” and the AP result is “ND (^ <4%)”. Under setting [4], the AX result is “ND (^ <4%)”, the CE result is listed as “ND (^ <4%)”, the HL entry is “ND (^ <4%)” and the MS result is “ND (^ <4%)”. For the same compound, under setting [4], the PS entry is reported as “ND (^ <4%)” and the SH entry was “ND (^ <4%)”. Further, the UK entry (SmartCube class probability, 3.0 mg/kg i.p., 15 min before test, hydrochloride, 3 mg/kg) was “ND (^ <4%)”. Under setting [3], this compound gave an MED of over 3 mpk.
For `CNC1(C)Cc2ccsc2C1` (stereo not drawn) [Compound 328, N, 5-dimethyl-5,6-dihydro-4H-cyclopenta[b]thiophen-5-amine hydrochloride], the minimal effective dose (minimal effective dose: dose having 45% or more total activity in SmartCube, i.p., if only one dose was tested, that dose is shown) was determined as 3 mg/kg. Under setting [5], the AD result is reported as “++ (≥24%)”, the AG result is listed as “ND (^ <4%)”, the AN entry is on record as “ND (^ <4%)” and the AP entry was “ND (^ <4%)”. Besides, under setting [5], the AX entry is listed as “+ (≥4%)”, the CE entry is given as “ND (^ <4%)”, the HL result is on record as “+ (≥4%)” and the MS result is “ND (^ <4%)”. Also, under setting [5], the PS entry was “++ (≥24%)”, the SH result is listed as “ND (^ <4%)” and the UK result is “+ (≥4%)”.
For the compound `CC1(N)CCc2cscc2C1.Cl` (single isomer, unassigned) [Compound 123, 5-methyl-6,7-dihydro-4H-2-benzothiophen-5-amine hydrochloride], under setting [1], the “MED (minimal effective dose)” value came out at 1 mpk. Also, under setting [2], the AG result was “ND (^ <4%)”, the AN result was “ND (^ <4%)”, the AP result was “ND (^ <4%)” and the CE entry is on record as “ND (^ <4%)”. Further, under setting [2], the MS result is recorded as “ND (^ <4%)”, the SH entry is listed as “ND (^ <4%)” and the UK result is “ND (^ <4%)”. Besides, under setting [6], the AD result is “+ (≥4%)”, the AX result is reported as “ND (^ <4%)”, the HL result was “++ (≥24%)” and the PS entry is on record as “++ (≥24%)”.
